Paper PMC7901646, “Pyrrolo[2′,3′:3,4]cyclohepta[1,2-d][1,2]oxazoles, a New Class of Antimitotic Agents Active against Multiple Malignant Cell Types” (Journal of Medicinal Chemistry, 2020)

Columns and labels:
HBL1 (ABC DLBCL) = test: MTT cell proliferation, lymphoma; type: cell-based; conditions: Homo sapiens, 72 h; for activity at 1 µM: of untreated cells, read-out: Proliferating cells (%)
Protocol: (§1) All compounds were further tested at the concentration of 1 μM on four cell lines derived from distinct lymphoma histotypes, plus two with secondary resistance to the PI3Kδ inhibitor idelalisib[51] or to the BTK inhibitor ibrutinib.[52] […] For comparison, the same experiments were conducted using compound 3, but the response to it was minimal, and thus it was not considered further.
(§2) Established human cell lines derived from germinal center B-cell (GCB) (SU-DHL-10), activated B-cell (ABC) (HBL1) diffuse large B-cell lymphoma (DLBCL), mantle cell lymphoma (MCL) (MINO), splenic marginal zone lymphoma (SMZL) (parental VL51, VL51 idelalisib resistant clone, VL51 ibrutinib resistant clone) were cultured in culture RPMI-1640 media supplemented with fetal bovine serum (10%), penicillin–streptomycin–neomycin (∼5,000 units of penicillin, 5 mg of streptomycinm and 10 mg of neomycin/mL, Sigma), and L-glutamine (1%). Vincristine sulfate was purchased from Sigma-Aldrich. Cell line identities were confirmed by CellCheck test (IDEXX, BioResearch, Ludwigsburg, Germany). All compounds were dissolved in dimethyl sulfoxide to obtain a stock concentration of 10 mM.
(§3) The antiproliferative activity of all compounds was assessed by using the 3-(4.5-dimethylthiazolyl-2)-2,5-diphenyltetrazolium bromide (MTT) test. Cells were seeded in 96-well plates (nontissue culture treated) at a density of 1 × 10^5 cells/mL and treated with a single concentration of 1 μM for 72 h. […] In this case, cells were treated in triplicate with serially diluted compounds in the appropriate tissue culture medium at a range of 40–10 000 nM. Cells were incubated for 72 h at 37 °C, 5% CO2. Wells containing medium only were included on each plate and served as blanks for absorbance readings. MTT (Sigma, Buchs, Switzerland) was prepared as a 5 mg/mL stock solution in phosphate buffered saline (PBS) and filter-sterilized. MTT solution (22 μL) was added to each well, and tissue culture plates were incubated at 37 °C for 4 h. Cells were then lysed with 25% sodium dodecyl sulfate lysis buffer, and absorbance was read at 570 nm using a Beckman Coulter-AD340 plate reader.

MINO (MCL) = test: MTT cell proliferation, lymphoma; type: cell-based; conditions: Homo sapiens, 72 h; for activity at 1 µM: of untreated cells, read-out: Proliferating cells (%)
Protocol: as §1, §2, §3

SU-DHL-10 (GCB DLBCL) = test: MTT cell proliferation, lymphoma; type: cell-based; conditions: Homo sapiens, SU-DHL10, 72 h; for activity at 1 µM: of untreated cells, read-out: Proliferating cells (%)
Protocol: as §1, §2, §3

VL51 (MZL) = test: MTT cell proliferation, lymphoma; type: cell-based; conditions: Homo sapiens, 72 h; for activity at 1 µM: of untreated cells, read-out: Proliferating cells (%)
Protocol: as §1, §2, §3

VL51 ibrutinib-resistant = test: MTT cell proliferation, lymphoma; type: cell-based; conditions: Homo sapiens, 72 h, of untreated cells, read-out: Proliferating cells (%)
Protocol: as §1, §2, §3

[1] = system: VL51 idelalisib-resistant; test: MTT cell proliferation, lymphoma; type: cell-based; conditions: Homo sapiens, 72 h, of untreated cells, read-out: Proliferating cells (%)
Protocol: as §1, §2, §3

bovine brain tubulin = bovine brain tubulin (Bos taurus, UniProt P81947+Q6B856); test: Inhibition of tubulin assembly (turbidimetry); type: biochemical; conditions: 9 μM (0.9 mg/mL) tubulin, 20 min at 30 °C; read-out: inhibition of tubulin assembly IC50 ± SD
Chain of bovine brain tubulin (Q6B856 whole entry): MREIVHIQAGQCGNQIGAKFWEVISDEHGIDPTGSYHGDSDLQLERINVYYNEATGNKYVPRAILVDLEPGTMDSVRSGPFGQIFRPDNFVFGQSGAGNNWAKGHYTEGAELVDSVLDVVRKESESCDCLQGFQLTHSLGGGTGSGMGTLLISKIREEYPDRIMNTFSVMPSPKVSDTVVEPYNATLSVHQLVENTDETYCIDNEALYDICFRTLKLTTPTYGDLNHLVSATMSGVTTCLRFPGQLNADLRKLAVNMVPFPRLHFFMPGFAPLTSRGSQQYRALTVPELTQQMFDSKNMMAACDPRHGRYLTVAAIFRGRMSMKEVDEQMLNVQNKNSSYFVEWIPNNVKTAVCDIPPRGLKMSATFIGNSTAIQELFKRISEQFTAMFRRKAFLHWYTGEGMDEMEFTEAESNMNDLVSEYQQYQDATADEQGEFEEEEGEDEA
Chain of bovine brain tubulin (P81947 whole entry): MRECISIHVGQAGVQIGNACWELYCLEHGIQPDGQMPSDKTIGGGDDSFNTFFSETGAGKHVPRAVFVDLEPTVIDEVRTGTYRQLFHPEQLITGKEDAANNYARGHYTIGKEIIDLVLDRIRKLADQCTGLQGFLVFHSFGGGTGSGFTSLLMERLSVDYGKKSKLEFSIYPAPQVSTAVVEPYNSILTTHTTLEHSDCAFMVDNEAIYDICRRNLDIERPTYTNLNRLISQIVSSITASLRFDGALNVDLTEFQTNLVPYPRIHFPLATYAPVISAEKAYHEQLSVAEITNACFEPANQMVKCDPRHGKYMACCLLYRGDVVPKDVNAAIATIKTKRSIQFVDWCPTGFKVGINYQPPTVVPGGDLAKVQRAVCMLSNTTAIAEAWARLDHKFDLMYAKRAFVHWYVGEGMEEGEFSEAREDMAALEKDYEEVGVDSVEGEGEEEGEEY

tubulin colchicine site = tubulin colchicine site (Bos taurus, UniProt P81947+Q6B856); test: Inhibition of [3H]colchicine binding to tubulin; conditions: read-out: inhibition of colchicine binding % inhibition ± SD
Chain of tubulin colchicine site (Q6B856 whole entry): as the sequence (Q6B856 whole entry) above
Chain of tubulin colchicine site (P81947 whole entry): as the sequence (P81947 whole entry) above
Protocol: Reaction mixtures in the assembly assay contained 9 μM (0.9 mg/mL) tubulin in the assembly assay, and in the colchicine assay they contained 0.5 μM tubulin, 5.0 μM [^3H]colchicine, and 5.0 μM inhibitor.
Analysis of effects on tubulin polymerization was performed by turbidimetry at 350 nm in recording spectrophotometers equipped with electronic temperature controllers as described in detail elsewhere.[71] […] The binding of [^3H]colchicine to tubulin was perfomed as described in detail previously[72] except that the tubulin concentration was reduced from 0.1 mg/mL to 0.05 mg/mL and only one, instead of two, DEAE-cellulose filter was used for each reaction mixture.

[2] = system: human peripheral blood lymphocytes not stimulated with PHA; test: Cytotoxicity in resting PBLs (MTT); type: cell-based; conditions: Lymphocyte, 72 h, mean ± SEM, three experiments, read-out: GI50 PBLresting
Protocol: (§4) PBLs were obtained from human peripheral blood (leucocyte rich plasma-buffy coats) from healthy volunteers using the Lymphoprep (Fresenius KABI Norge AS) gradient density centrifugation.
(§5) After extensive washing, cells were resuspended (1.0 × 10^6 cells/mL) in RPMI-1640 with 10% fetal bovine serum and incubated overnight. For cytotoxicity evaluations in proliferating PBL cultures, nonadherent cells were resuspended at 5 × 10^5 cells/mL in growth medium, containing 2.5 μg/mL PHA (Irvine Scientific). Different concentrations of the test compounds were added, and viability was determined 72 h later by the MTT test. For cytotoxicity evaluations in resting PBL cultures, nonadherent cells were resuspended (5 × 10^5 cells/mL) and treated for 72 h with the test compounds.

[3] = system: human peripheral blood lymphocytes stimulated with PHA; test: Cytotoxicity in PHA-stimulated PBLs (MTT); type: cell-based; conditions: Lymphocyte, 72 h, mean ± SEM, three experiments, read-out: GI50 PBLPHA
Protocol: as §4, §5

tumor growth = system: tumor growth; set-up: method as in PMID 17915194, PMID 21215627; conditions: in vivo models, dose of 50–100 mg/kg; cited from earlier work
six lymphoma cell lines = test: MTT cell proliferation, all lymphoma cell lines; type: cell-based, human; conditions: 1 μM, 72 h, of the untreated cells
Protocol: as §1
as §2, with “Cell line identities were confirmed by CellCheck test (IDEXX, BioResearch, Ludwigsburg, Germany). All compounds were dissolved in dimethyl sulfoxide to obtain a stock concentration of 10 mM.” left out
The antiproliferative activity of all compounds was assessed by using the 3-(4.5-dimethylthiazolyl-2)-2,5-diphenyltetrazolium bromide (MTT) test. […] Wells containing medium only were included on each plate and served as blanks for absorbance readings. […] Cells were then lysed with 25% sodium dodecyl sulfate lysis buffer, and absorbance was read at 570 nm using a Beckman Coulter-AD340 plate reader.

[4] = system: NCI-60 panel of human cancer cell lines; set-up: method as in earlier work; conditions: full NCI panel, ref 42−45, cited from earlier work

Structure (SMILES) | activity at 1 µM (HBL1 (ABC DLBCL)) [%] | activity at 1 µM (MINO (MCL)) [%] | activity at 1 µM (SU-DHL-10 (GCB DLBCL)) [%] | activity at 1 µM (VL51 (MZL)) [%] | activity at 1 µM (VL51 ibrutinib-resistant) [%] | activity at 1 µM [1] [%] | IC50 (bovine brain tubulin) [nM] | other results
COc1ccc(OC)c(Cn2ccc3c2-c2oncc2CCC3)c1 [Compound 57, 9-(2,5-Dimethoxybenzyl)-4,5,6,9-tetrahydropyrrolo[2′,3′:3,4]cyclohepta[1,2-d][1,2]oxazole] | 29.6 | 8.5 | 11 | 36.5 | 37 | 34.3 | 3200 ± 60 | IC50 (HBL1 (ABC DLBCL); MTT): 600 nM; IC50 (MINO (MCL); MTT): 400 nM; IC50 (SU-DHL-10 (GCB DLBCL); MTT): 300 nM; IC50 (VL51 (MZL); MTT): 200 nM; inhibition at 5 µM (tubulin colchicine site): 38 ± 0.7%
CC[C@]1(O)C[C@H]2CN(CCc3c([nH]c4ccccc34)[C@@](C(=O)OC)(c3cc4c(cc3OC)N(C=O)[C@H]3[C@@](O)(C(=O)OC)[C@H](OC(C)=O)[C@]5(CC)C=CCN6CC[C@]43[C@@H]65)C2)C1 [vincristine, reference compound] | – | – | – | – | – | – | – | GI50 [2]: 7500 ± 3100 nM; GI50 [3]: 1200 ± 600 nM
CCc1cc(-c2oncc2-c2ccc(OC)cc2)c(O)cc1OC [KRIBB3] | – | – | – | – | – | – | – | reduction of tumor growth (tumor growth): 50–70%
CCOC(=O)c1cc2c(n1Cc1cc(OC)cc(OC)c1)-c1oncc1CC2 [Compound 3, ethyl 8-(3,5-dimethoxybenzyl)-5,8-dihydro-4H-[1,2]oxazolo[4,5-g]indole-7-carboxylate, reference compound] | 95.6 | 94.5 | 80 | 93.5 | 123 | 107 | 9200 ± 400 | percentage of proliferating cells, all tested cell lines (six lymphoma cell lines): minimal; MG_MID (mean graph midpoint) [4]: 0.25 µM; GI50 ([4]; read-out: GI50 range): 30 to 31100 nM
